Laboratory results as given in patent US10875891B2, “Short synthetic peptide and uses thereof” (MacKay Memorial Hospital, priority 2018, dated 2020).
Entries after “also recorded” stand apart in the source; their conditions may differ. Where no end group is shown, it is not given here.

How the values were obtained:
RPMI8226 cells [1] = test: Annexin V/propidium iodide apoptosis by flow cytometry; format: cell-based, human; conditions: treatment for 24 hr; control untreated cells less than 15%; FIG. 6
Experimental: Annexin V/propidium iodide (PI) staining was performed using flow cytometry according to the manufacturer's guidelines (Annexin V-FITC Apoptosis Detection kit; Roche). Briefly, 0.5×10^6 cells were washed in ice-cold PBS without Ca^2+ or Mg^2+ (Life Technologies). The cells were then re-suspended in 100 μl of binding buffer and incubated with 5.0 μl of PI and 2.0 μl of annexin V-fluorescein isothiocynate for 15 min in the dark at room temperature. Flow cytometric analysis was immediately performed using a FACScalibur Instrument (Becton Dickinson).

U266 cells = test: Trypan blue exclusion assay; format: cell-based, human; conditions: vs solvent (DMSO) 8.7±1.1, FIG. 5
Experimental: (§1) RPMI8226 cells or U266 cells were cultured in serum-free RPMI1640 medium for 24 h, and then cells seeded in 48-well culture plates (3×10^5 cells/well) and cultured in 0.5 ml fresh serum-free RPMI1640 medium containing 20 μM peptide for further 24 h. The cell viability was determined by the MTT assay. The cells were examined under a microscope with the aid of a hemacytometer, in which 0.1 mL of trypan blue stock solution (0.4% solution of trypan blue in isotonic salt buffer solution, pH 7.2) was added to 1 mL cell suspension, and loaded therein. The number of blue staining cells (considered non-viable) and the number of total cells were respectively counted. Cell viability should be at least 95% for healthy log-phase cultures.

RPMI8226 cells [2] = test: Trypan blue exclusion assay; format: cell-based, human; conditions: vs solvent (DMSO) 7.5±1.3, FIG. 5
Experimental: as §1, with “The multiple myeloma line RPMI8226 or […] Raw264.7 macrophages were cultivated in complex medium (RPMI1640) supplemented with 10% (vol/vol) heat-inactivated fetal calf serum (Invitrogen), 50 μg/mL penicillin, 50 μg/mL streptomycin, and 2 mM L-glutamine at 37° C. in a 5% CO2 atmosphere RPMI8226” for “RPMI8226”

Murine dry eye model [3] = test: Dry eye animal model, fluorescein eye stain test for corneal injuries; format: in vivo, C57BL/6 mice; conditions: peptide 50 μM topically three times a day for 4 days
Experimental: (§2) C57BL/6 mice (7-8 weeks old, each weighted about 18 to 25 g) were used in this model system. All mice were maintained in the animal facility in accordance with the procedures approved by Mackay Memorial Hospital Review Board (Taiwan, R.O. C.). All animal experimental procedures were conducted according to the ARVO Statement for the Use of Animals in Ophthalmic and Vision Research.
(§3) Dry eyes were induced by placing mice in a controlled environment chamber (CEC) for 14 days in accordance with procedures previously described by Barabino et al (IVOS (2005) 46(8), 2766-2771). Mice placed in the CEC were exposed to a condition, in which relative humidity (RH) was maintained at <25%, temperature at 20-22° C., and airflow at about 15 L/min, for 12 hours per day. Control mice were kept in a normal environment (RH>50%, no air flow, temperature of 20-22° C.) for the same duration.
(§4) A common artificial tear formulation, 1% carboxymethylcelllulose (CMC) dissolved in balanced salt solution (BSS) was used as the peptide vehicle. Peptide (50 μM) or 1% CMC vehicle was topically administered to eyes three times a day, for 4 days.
Corneal epithelial injury was determined by staining with topical fluorescein (100 mg/ml or 10%; FLUORESCITE™, Alcon Laboratories). For dosing, topical fluorescein (0.6 μL of 0.5% sodium fluorescein dissolved in 4.4 μL BSS per eye) was applied via a micro-pipette to the lateral canthus for 15 sec. Corneal fluorescein staining was examined with a slit-lamp biomicroscope under cobalt blue light and photographed with a digital camera. Data is presented as mean±SD. Dye staining of the cornea was scored in a blinded manner as follows: score 0 for no punctuate staining; score 1 when less than one third of the cornea was stained; score 2 when two thirds or less was stained; and score 3 when more than two thirds was stained.

[4] = tested on: Murine psoriasis vulgaris-like skin inflammation model; test: IMQ-induced psoriasis vulgaris-like skin inflammation model, keratinocyte proliferation by BrdU incorporation; format: in vivo, BALB/c mice
Experimental: (§5) BALB/c mice (8-weeks old females; n=42) were used in this model system. […] Accordingly, in this model, each BALB/c mice received a daily topical dose (62.5 mg) of commercially available IMQ cream (Imiquimod Cream 5% w/w, Aldara™) on the shaved back and the right ear for 6 consecutive days (n=6); whereas the control mice (normal group) were treated with a control cream (n=6). For treatment, each test peptide was mixed with IMQ cream to give a concentration of 25 μM (n=6 per group). Keratinocyte proliferation was determined by BrdU incorporation. BrdU (Sigma-Aldrich) was reconstituted in DMSO as a stock solution of 80 mM. 10 μl of BrdU mixed with 90 μl of PBS was intraperitoneally injected into each mouse for 24 hr prior to euthanasia.
(§6) Slides were blocked with 10% goat serum for 60 min and then incubated with primary antibody against BrdU (1:50 dilution; GTX42641) for 3 hr at RT. The slides were then incubated with peroxidase-labeled donkey immunoglobulin for 30 min and then incubated with chromogen substrate (3,3′-diaminobenzidine) for 2 min before counterstaining with hematoxylin. Quantification was estimated based on high quality images (1208×960 pixels buffer) captured using a Nikon Eclipse 80i light microscope.

[5] = tested on: Murine psoriasis vulgaris-like skin inflammation model; test: IMQ-induced psoriasis vulgaris-like skin inflammation model, H&E histology of back skin; format: in vivo, BALB/c mice
Experimental: as §5
Back skin of the mouse was fixed overnight in 4% paraformaldehyde, dehydrated with graded ethanol series, and paraffinized. Fixed samples were deparaffinized in xylene and rehydrated in a graded series of ethanol. Tissues were sliced into 5-μm sections. General histology was performed using hematoxylin and eosin (H&E) (Merck, Rayway, N.J., USA).
as §6

myeloma RPMI 8226 cell = test: MTT assay, cell viability; format: cell-based, human; conditions: 20 μM peptide, 24 h, serum-free RPMI1640; FIGS. 1-2
Experimental: The multiple myeloma line RPMI8226 or […] Raw264.7 macrophages were cultivated in complex medium (RPMI1640) supplemented with 10% (vol/vol) heat-inactivated fetal calf serum (Invitrogen), 50 μg/mL penicillin, 50 μg/mL streptomycin, and 2 mM L-glutamine at 37° C. in a 5% CO2 atmosphere
RPMI8226 cells or U266 cells were cultured in serum-free RPMI1640 medium for 24 h, and then cells seeded in 48-well culture plates (3×10^5 cells/well) and cultured in 0.5 ml fresh serum-free RPMI1640 medium containing 20 μM peptide for further 24 h. The cell viability was determined by the MTT assay.
50 μL of the MTT stock solution (5 mg MTT dissolved in 1 ml of sterile PBS) was added to each well, and 50 μL of the MTT stock solution was added to 500 μL of medium alone and used as a negative control. Each sample was Incubates at 37° C. for 4 hours. Aliquots (450 μl) from each sample were taken to a new well of 48-well culture plate, adding 100 μL DMSO, mixing thoroughly using the pipette and reacted at 37° C. for 20 min and absorbance was measured at 570 nm.

[6] = tested on: Murine psoriasis vulgaris-like skin inflammation model; test: IMQ-induced psoriasis vulgaris-like skin inflammation model, skin appearance; format: in vivo, BALB/c mice; conditions: 25 μM with IMQ cream, topical daily, six consecutive days; FIG. 7
Experimental: as §5

Murine dry eye model [7] = test: Dry eye animal model, tear production by phenol red thread test; format: in vivo, C57BL/6 mice; conditions: treated for 4 days; P<0.01 versus vehicle treatment; FIG. 4
Experimental: as §2, §3, §4
Tear production was measured with phenol red-impregnated cotton threads (Zone-Quick; Oasis, Glendora, Calif.). The validity of this test in mice was performed as previously described (Dursun et al., Invest Ophthalmol Vis Sci. 2002; 43:632-8). The threads were held with jeweler forceps and placed in the lateral canthus for 60 seconds. The tear production expressed in millimeters of thread wet by the tear and turned red.

NH2-Asp-Ile-Thr-Tyr-Val-Arg-Leu-Lys-Phe-COOH (DITYVRLKF; not fully specified (N-terminus, C-terminus); printed as NH2-Asp-Ile-Thr-Tyr-Val-Arg-Leu-Lys-Phe-COOH) [9-mer, short synthetic peptide …]
myeloma cells exhibiting apoptotic phosphatidylserine exposure (annexin-V staining) (RPMI8226 cells [1]): approximately 54%
cell viability by trypan blue assay (U266 cells): 47.0±4.6
cell viability by trypan blue assay (RPMI8226 cells [2]): 59.7±4.5
reduction in mean corneal fluorescein staining score compared with vehicle treated control mice (Murine dry eye model [3]; FIG. 3 panel B): about 3 fold
corneal fluorescein stain (corneal damage), result in words (Murine dry eye model [3]; vs vehicle): reduced significantly
hyperproliferation of keratinocytes, BrdU-positive cells in the epidermis (labeling index) ([4]; 25 μM with IMQ cream, day 6, IMQ control 24.5±2.0, FIG. 9 panel B): 8.3±1.4%
location of BrdU-positive cells in the epidermis ([4]; day 6 after IMQ treatment, FIG. 9 panel A): restrict to the basal layer of the epidermis
acanthosis, quantified epidermal thickness ([5]; 25 μM with IMQ cream, 6 days, IMQ control 122±10.5, FIG. 8 panel B): 39.2±2.7 μm
acanthosis and desquamation in skin sections (H&E staining), result in words ([5]; vs IMQ-treated skin sections, FIG. 8 panel A): decrease in acanthosis and less desquamation
myeloma RPMI 8226 cell viability (MTT assay) (myeloma RPMI 8226 cell): successfully suppressed myeloma RPMI 8226 cell viability; also recorded: effective in suppressing myeloma cell viability
skin inflammation and desquamation [6]: reduced level of dosal skin inflammation and desquamation
tear volume (tear production) (Murine dry eye model [7]): significantly increased
